Several values for one entry are separate records, joined by “and”; a condition that tells them apart may be missing. Equal values may be shown once.
Experiments:
[1] = molecular target: Glutamate receptor 3 (Rattus norvegicus, UniProt P19492)
[2] = molecular target: Glutamate receptor 3 (Homo sapiens, UniProt P42263)
Chain of Glutamate receptor 3 (Homo sapiens, UniProt P42263) (P42263 whole entry): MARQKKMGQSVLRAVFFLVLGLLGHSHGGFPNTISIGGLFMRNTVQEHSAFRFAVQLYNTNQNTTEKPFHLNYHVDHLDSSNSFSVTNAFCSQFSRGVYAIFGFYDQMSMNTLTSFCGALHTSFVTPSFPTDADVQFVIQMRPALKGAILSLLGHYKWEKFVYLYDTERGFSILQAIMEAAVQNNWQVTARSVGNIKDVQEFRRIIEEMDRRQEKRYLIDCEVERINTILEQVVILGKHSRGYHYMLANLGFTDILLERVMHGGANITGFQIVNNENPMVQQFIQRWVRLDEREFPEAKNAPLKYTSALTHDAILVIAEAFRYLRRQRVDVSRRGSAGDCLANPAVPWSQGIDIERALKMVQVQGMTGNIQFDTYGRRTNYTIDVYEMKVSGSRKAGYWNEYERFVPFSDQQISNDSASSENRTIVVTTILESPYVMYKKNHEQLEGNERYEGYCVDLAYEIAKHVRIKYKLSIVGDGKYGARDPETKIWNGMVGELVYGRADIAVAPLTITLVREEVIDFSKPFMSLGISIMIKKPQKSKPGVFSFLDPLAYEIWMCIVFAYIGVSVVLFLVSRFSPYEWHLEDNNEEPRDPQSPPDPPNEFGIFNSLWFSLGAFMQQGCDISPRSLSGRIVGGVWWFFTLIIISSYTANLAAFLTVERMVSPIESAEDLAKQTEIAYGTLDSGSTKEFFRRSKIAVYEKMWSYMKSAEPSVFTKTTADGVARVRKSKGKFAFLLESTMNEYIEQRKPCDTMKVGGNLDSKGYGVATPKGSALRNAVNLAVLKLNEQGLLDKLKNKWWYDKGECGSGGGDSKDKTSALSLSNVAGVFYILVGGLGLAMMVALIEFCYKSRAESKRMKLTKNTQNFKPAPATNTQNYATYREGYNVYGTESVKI

Chain of Glutamate receptor 3 (Rattus norvegicus, UniProt P19492) (P19492 whole entry): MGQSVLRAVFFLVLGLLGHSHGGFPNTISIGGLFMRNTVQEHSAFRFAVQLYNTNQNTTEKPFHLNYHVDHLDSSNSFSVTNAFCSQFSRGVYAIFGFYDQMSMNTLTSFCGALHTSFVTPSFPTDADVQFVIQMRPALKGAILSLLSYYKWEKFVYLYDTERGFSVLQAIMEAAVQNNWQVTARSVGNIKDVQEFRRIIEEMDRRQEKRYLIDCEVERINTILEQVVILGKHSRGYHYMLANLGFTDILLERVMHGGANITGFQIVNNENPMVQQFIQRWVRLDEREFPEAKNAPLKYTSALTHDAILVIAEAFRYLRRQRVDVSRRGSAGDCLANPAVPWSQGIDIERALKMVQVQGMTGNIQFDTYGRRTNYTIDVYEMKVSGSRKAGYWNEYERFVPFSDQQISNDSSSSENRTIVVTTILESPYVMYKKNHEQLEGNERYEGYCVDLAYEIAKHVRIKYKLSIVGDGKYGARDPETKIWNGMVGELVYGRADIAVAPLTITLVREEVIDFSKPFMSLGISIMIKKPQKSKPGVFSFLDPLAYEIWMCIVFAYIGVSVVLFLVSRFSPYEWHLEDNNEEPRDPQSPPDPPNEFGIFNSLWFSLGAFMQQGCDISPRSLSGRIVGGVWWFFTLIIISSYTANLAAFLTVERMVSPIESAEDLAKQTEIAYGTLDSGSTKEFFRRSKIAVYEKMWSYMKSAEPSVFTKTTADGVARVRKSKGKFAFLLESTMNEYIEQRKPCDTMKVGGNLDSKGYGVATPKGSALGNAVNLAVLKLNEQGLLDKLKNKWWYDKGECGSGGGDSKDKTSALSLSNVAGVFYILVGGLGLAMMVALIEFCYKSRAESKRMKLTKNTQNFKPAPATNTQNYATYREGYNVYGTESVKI

Row | SMILES | Ki [1] | Ki [2]
1 | Cc1onc(OCC(=O)O)c1CC(N)C(=O)O (centres undefined) [2-Amino-3-(3-carboxymethoxy-5-methyl-isoxazol-4-yl)-propionic acid(AMOA)] | > 10 µM | > 10 µM
2 | O=C1N=c2c3c(ccc2=C1NO)C([N+](=O)[O-])CCC3 (centres undefined) [NSC_5311098] | > 10 µM | > 10 µM
3 | CC(C)[C@H](NC(=O)[C@H](CCCCN)NC(=O)[C@@H](Cc1c[nH]c2ccccc12)NC(=O)[C@H](Cc1ccc(O)cc1)NC(=O)[C@H](CS)NC(=O)[C@H](N)Cc1ccc2ccccc2c1)C(=O)N[C@@H](CS)C(=O)N[C@@H](Cc1ccc2ccccc2c1)C(N)=O [Dnal,Cys,Tyr,DTrp,Lys,Val,Cys,Nal-nh2] | – | 0.494 µM
4 | N[C@@H](Cn1cc(F)c(=O)[nH]c1=O)C(=O)O [(S)-5-Fluorowillardiine] | 0.018 µM | –
5 | C/C(=C\C=C\[C@@H](C)C(=O)O)[C@H]1CN[C@H](C(=O)O)[C@H]1CC(=O)O | 3.54 µM | 2.77 µM and 4.59 µM
6 | O=C1N=c2cc([N+](=O)[O-])c([N+](=O)[O-])cc2=NC1=O [NSC_3140] | – | 2.09 µM and 1.66 µM
7 | N#Cc1cc2nc(O)c(O)nc2cc1[N+](=O)[O-] [7-Cyano-3-hydroxy-6-nitro-quinoxalin-2-ol anion] | 0.47 µM | –
8 | CN1Cc2c(S(=O)(=O)N(C)C)cc3c(c2C1)NC(=O)C3N=O (centres undefined) | 0.782 µM | 1.43 µM and > 10 µM and 8.45 µM
9 | NC(CCC(=O)NCS(=O)(=O)O)C(=O)O (centres undefined) [CAS_90237-02-8] | > 10 µM | > 10 µM
10 | CC1=NN=C(c2ccc(N)cc2)c2cc3c(cc2C1)OCO3 [GYKI-52466] | > 10 µM | > 10 µM
11 | C=C(C)[C@H]1CN[C@H](C(=O)O)[C@H]1CC(=O)O [Digensaeure] | – | 2.63 µM and 8.05 µM
12 | O=C1N=c2cc(N(O)O)c(-n3ccnc3)cc2=NC1=O [CAS_3035216] | 0.407 µM | 0.63 µM and 2.45 µM and 1.96 µM

Source: BindingDB's records for PubMed 9536032 (Sibia Neurosciences, 1998)
